Test results taken from patent US10464967B2, “Non-hormonal steroid modulators of NF-κβ for treatment of disease” (Reveragen Biopharma, Inc., priority 2011, dated 2019).

What was measured:
[1] = test system: C57BL/6 mice; assay: Mouse carrageenan-induced paw edema model; format: in vivo; settings: 10, 20, 40 mg/kg in cherry syrup; 5 hours after carrageenan
Description: Female C57BL/6 mice (n=5 per group) were administered prednisone (5 mg/kg) and the compound of Example 9 (10, 20, 40 mg/kg) in cherry syrup. 24 hours later, drugs and vehicle control (syrup) were administered again. 2 hours later, mice were anesthetized, paw thickness was measured with a caliper to obtain a baseline value, and 1% carrageenan was injected subcutaneously in the subplantar region of the right hind paw. Mice were sacrificed 5 hours later and paw edema was measured via caliper. Change in thickness was calculated by subtracting baseline value from post-carrageenan injection value. Statistical analysis was performed using a Student's T-test.

[2] = test system: mice; assay: OVA-induced mouse model of acute allergic asthma; format: in vivo; settings: 20 mg/kg oral on days 6-11
Description: The model used in the current studies has been previously described (Gwinn et al. 2006; Balsley et al. 2010). Briefly, mice were primed via intraperitoneal (i.p) injection with 50 μg of OVA in PBS with 100 μl of alum (200 μl total volume per mouse) on day 0. OVA-primed mice were challenged under light anesthesia (isoflurane) by intranasal delivery of 100 μg of OVA in PBS on days 7-10. Mice were sacrificed via CO2 exposure on day 12 for analysis.
For in vivo intervention studies, mice (n=5) received an oral dose of 20 mg/kg of the compound of Example 9 suspended in cherry syrup (30 μl total volume) on days 6-11. Additional groups of mice (n=5) received 5 mg/kg of prednisone in cherry syrup as a positive control, or cherry syrup alone as a negative control. Following sacrifice on day 12, leukocytes were collected from the airways via bronchoalveolar lavage (BAL). For this procedure, a cannula was inserted into the trachea and two 1 ml washes of cold PBS were infused in and out of the airways. […]
BAL and lung tissue cells were treated with ammonium chloride lysis buffer to remove red blood cells. The remaining leukocytes were then counted and stained for FACS analysis with a combination of PE-Cy5-anti-mouse CD4 and FITC-anti-mouse CD62L to identify effector/memory CD4+ cells (CD4+/CD62L−). […]

[3] = test system: DBA/1 mice; assay: Collagen antibody induced arthritis (CAIA) model; format: in vivo, mouse; settings: for Mean clinical severity score / Reduction as compared with vehicle-treated mice: prednisone 5 mg/kg, Example 9 20 mg/kg oral
Description: On day 1, DBA/1 mice (Jackson Labs, Bar Harbor, Me.) received an intraperitoneal (i.p.) injection of 2 mg of monoclonal antibody cocktail specific for collagen (CII) (MD Biosciences, St. Paul, Minn.). Two days later (day 3), mice received an i.p. injection of 100 μg of lipopolysaccharide (LPS). Mean clinical severity of CAIA was determined using a macroscopic clinical severity scoring system every 2-3 days by three individuals until the end of the experiment (day 14 post antibody cocktail injection). The scoring criteria was performed as follows: 0: No signs of disease; 1: Mild redness and/or swelling of one digit; 2: Redness and/or swelling of 2 digits; 3: Redness and/or swelling of more than 2 digits; 4: Redness and swelling of entire paw.
For intervention studies, mice (n=10) received an oral dose of 20 mg/kg of the compound of Example 9 suspended in cherry syrup (30 μl total volume) on day 0 through day 14. Additional groups of mice (n=10) received 5 mg/kg of prednisone in cherry syrup as a positive control, or cherry syrup alone as a negative control. On day 14, animals were sacrificed via CO2 exposure. Statistical analysis was performed using a two-way ANOVA followed by a Bonferroni post-hoc test.

[4] = test system: mdx mice; assay: In vivo mdx mouse model of dystrophy
Description: Separate groups (n=12-14) of mdx mice were treated with prednisolone (5 mg/kg/day; per oral in feed), Example 1 (20 and 40 mg/kg/day; per oral in feed) and Example 2 (20 and 40 mg/kg/day; per oral in feed) for 3 months. All mice underwent 30 min biweekly treadmill exercise during the treatment duration to unmask the mild disease phenotype of mdx mouse model.
Motor coordination and strength were assessed using Rota-rod (Ugo Basile, VA, Italy) testing. Briefly, mice were trained on the rota-rod for two days before collecting data. Each acclimatization session consisted of four training sessions, 2 per day and each session lasting 120 seconds at a speed of 5 rpm). Each trial consisted of placing the mice on the rod at 10 rpm for 60 seconds (stabilizing period) followed by an acceleration from 10 rpm to 40 rpm within the first 25 seconds until the animal fell from the rod or until 180 seconds are reached. If the animals fell during the stabilizing period, they were placed back on the rod to complete the session. The total testing time was 240 seconds (60 seconds stabilization time and 180 seconds test time). Each trial was performed twice a day (2 hour interval between sessions) for 3 consecutive days. The latency to fall (seconds) was recorded and all six scores were averaged per mouse. The average data was expressed as latency to fall (in seconds) for each group mice at 3 age groups.
The distal tendon of the extensor digitorum longus (EDL) muscle was tied securely to the lever arm of a servomotor/force transducer (model 305B, Aurora Scientific, Richmond Hill, ON, Canada) and the proximal tendon to a tissue clamp. Muscles were stimulated between two platinum electrodes. […] With the muscle held at Lo using stimulation frequencies of 30, 50, 80, 100, 120 and 150 Hz, the maximum isometric tetanic force (Po) developed during a 300 ms train of stimulation pulses was recorded for the EDL muscle. The muscle length was then measured with calipers and after removal of the muscle from the bath the mass of the muscle was determined. For each muscle, the optimum fiber length (Lf) was calculated by multiplying Lo by a previously determined Lf/Lo ratio of 0.45. Total muscle fiber cross-sectional area was determined by dividing the wet mass by the product of Lf and the density of mammalian skeletal muscle (1.06 mg/mm^3). Maximum isometric specific force (sPo) was determined by dividing Po by the total muscle fiber cross-sectional area.

[5] = 20 and 40 mg/kg/day for 3 months, vs untreated and prednisolone treated

Structure (SMILES) | Mean clinical severity score ([3]; Day 7) | Reduction as compared with vehicle-treated mice ([3]; Day 7) [%] | Mean clinical severity score ([3]; Day 9) | Reduction as compared with vehicle-treated mice ([3]; Day 9) [%] | Mean clinical severity score ([3]; Day 11) | Reduction as compared with vehicle-treated mice ([3]; Day 11) [%] | Mean clinical severity score ([3]; Day 14) | Reduction as compared with vehicle-treated mice ([3]; Day 14) [%] | Histology (H&E) of gastrocnemius muscle [4, 5] | also measured
C[C@@H]1CC2C3CCC4=CC(=O)C=C[C@]4(C)C3=CC[C@]2(C)[C@@]1(O)C(=O)CO (stereo partly drawn) [Example 9, (10S,13S,16R,17R)-17-hydroxy-17-(2-hydroxyacetyl)-10,13,16-trimethyl-6,7,8,10,12,13,14,15,16,17-decahydro-3H-cyclopenta[a]phenanthren-3-one] | 4.5 ± 0.95 | 43.8 | 5.0 ± 0.77 | 35.5 | 5.6 ± 0.82 | 41.3 | 3.1 ± 0.69 | 50 |  | Carrageenan-induced paw edema [1]: effective at reducing mouse paw edema induced by carrageenan; Parameters of acute allergic lung inflammation (leukocyte infiltration, mucus production) [2]: effective at improving parameters of acute allergic lung inflammation; Collagen antibody induced arthritis ([3]; 20 mg/kg oral, day 0 through day 14): effective at reducing collagen antibody induced arthritis
C[C@]12CCC(=O)C=C1CCC1C2=CC[C@@]2(C)C1CC[C@]2(O)C(=O)CO (stereo partly drawn) [Example 1, (10S,13S,17R)-17-hydroxy-17-(2-hydroxyacetyl)-10,13-dimethyl-6,7,8,10,12,13,14,15,16,17-decahydro-1H-cyclopenta[a]phenanthren-3(2H)-one] |  |  |  |  |  |  |  |  | significant decrease in inflammation, degeneration, and increase in regenerating muscle fibers | 
C[C@]12C=CC(=O)C=C1CC[C@@H]1[C@@H]2C(=O)C[C@@]2(C)[C@H]1CC[C@]2(O)C(=O)CO [Prednisone, reference compound] | 2.4 ± 0.68 | 69.8 | 1.5 ± 0.27 | 69.8 | 2.9 ± 0.39 | 69.1 | 0.7 ± 0.3 | 88.7 |  | 
C[C@]12C=CC(=O)C=C1CC[C@@H]1[C@@H]2[C@@H](O)C[C@@]2(C)[C@H]1CC[C@]2(O)C(=O)CO [Prednisolone] |  |  |  |  |  |  |  |  |  | Body weight vs untreated mice ([4]; 5 mg/kg/day per oral in feed, 33.8 weeks age): significantly lower body weight; Histology (H&E) of gastrocnemius muscle ([4]; continuous prednisolone 5 mg/kg/day): appeared to increase degeneration and decrease in regeneration of dystrophic skeletal muscle; EDL specific force vs untreated ([4]; prednisolone 5 mg/kg/day): no statistically significant (P<0.05) difference in specific force
C[C@]12C=CC(=O)C=C1CCC1C2=CC[C@@]2(C)C1CC[C@]2(O)C(=O)CO (stereo partly drawn) [Example 2, (10S,13S,17R)-17-hydroxy-17-(2-hydroxyacetyl)-10,13-dimethyl-6,7,8,10,12,13,14,15,16,17-decahydro-3H-cyclopenta[a]phenanthren-3-one] |  |  |  |  |  |  |  |  | significant decrease in inflammation, degeneration, and increase in regenerating muscle fibers | 
